Assay results: US20110268842A1 (SIGMA ALIMENTOS, S.A. DE C.V., priority 2008, published 2011)

system: not given; assay: not given; details: supplements before conception; cited from earlier work

For `Nc1nc2ncc(CNc3ccc(C(=O)N[C@@H](CCC(=O)O)C(=O)O)cc3)nc2c(=O)[nH]1` [folic acid], the “reduction of the risks of neurological defects in the future child” value is listed as 50%.

system: Bifidobacterium animalis PTA-9175; assay: Determination of resistance patterns (Kirby-Bauer, inhibition halos); format: cell-based; details: sensidiscs on Mueller-Hinton agar; diameter 0 = resistant
Experimental: Method: To determine the phenotype of resistance to antibiotics the Kirby-Bauer method was used. From a young culture of 18 to 24 hours several colonies were taken with a sterile swab and inoculated into a test tube with a sterile, isotonic saline solution. The inoculum was visually adjusted to a turbidity of 0.5 on the McFarland scale. Within 15 minutes the inoculum was adjusted, a sterile swab was introduced into the suspension and when removing it the excess liquid was eliminated. Agar Mueller-Hinton plates were inoculated, leaving no free zone, sliding the swab across the surface of the agar 3 times, rotating the plate 60° each time and finally passing it over the periphery of the agar to achieve a uniform seed.
The plates were left to dry for 3 to 5 min and the sensidiscs of the following antibiotics were placed: norfloxacin, cephalothin, azithromycin, tobramycin, ampicillin/sulbactam, erythromycin cefatoxim, nalidixic acid, ceftazidime, aztreonam, vancomycin, cefuroxime, rifampicyn, nitrofurantoin, oxacylin, nefilmicin amikacin, kanamycin ticarcillin, clindamycin, ampicillin.
All strains with an inhibition diameter of 0 are resistant to the tested antibiotic.

In order of rising “Inhibition halo (mm)” value:
1. NCC[C@H](O)C(=O)N[C@@H]1C[C@H](N)[C@@H](O[C@H]2O[C@H](CN)[C@@H](O)[C@H](O)[C@H]2O)[C@H](O)[C@H]1O[C@H]1O[C@H](CO)[C@@H](O)[C@H](N)[C@H]1O [Amikacin]  0 mm
2. C[C@H]1[C@H](NC(=O)/C(=N\OC(C)(C)C(=O)O)c2csc(N)n2)C(=O)N1S(=O)(=O)O [Aztreonam]  0 mm
3. NC[C@H]1O[C@H](O[C@H]2[C@H](O)[C@@H](O[C@H]3O[C@H](CO)[C@@H](O)[C@H](N)[C@H]3O)[C@H](N)C[C@@H]2N)[C@H](O)[C@@H](O)[C@@H]1O [Kanamycin]  0 mm
4. CCn1cc(C(=O)O)c(=O)c2ccc(C)nc21 [Nalidixic acid]  0 mm
5. CCn1cc(C(=O)O)c(=O)c2cc(F)c(N3CCNCC3)cc21 [Norfloxacin]  0 mm
6. Cc1onc(-c2ccccc2)c1C(=O)N[C@@H]1C(=O)N2[C@@H]1SC(C)(C)[C@@H]2C(=O)O [Oxacylin]  0 mm
7. NC[C@H]1O[C@H](O[C@H]2[C@H](O)[C@@H](O[C@H]3O[C@H](CO)[C@@H](O)[C@H](N)[C@H]3O)[C@H](N)C[C@@H]2N)[C@H](N)C[C@@H]1O [Tobramycin]  0 mm
8. Nefilmicin  0 mm
9. Rifampicyn  2 mm
10. CC1COc2c(N3CCN(C)CC3)c(F)cc3c(=O)c(C(=O)O)cn1c23 (stereo not drawn) [Ofloxacin]  12 mm
11. CC(=O)OCC1=C(C(=O)O)N2C(=O)[C@@H](NC(=O)Cc3cccs3)[C@H]2SC1 [Cephalothin]  24 mm
12. CO/N=C(\C(=O)N[C@@H]1C(=O)N2C(C(=O)O)=C(COC(N)=O)CS[C@H]12)c1ccco1 [Cefuroxime]  25 mm
13. CN[C@H](CC(C)C)C(=O)N[C@H]1C(=O)N[C@@H](CC(N)=O)C(=O)N[C@H]2C(=O)N[C@H]3C(=O)N[C@H](C(=O)N[C@H](C(=O)O)c4cc(O)cc(O)c4-c4cc3ccc4O)[C@H](O)c3ccc(c(Cl)c3)Oc3cc2cc(c3O[C@@H]2O[C@H](CO)[C@@H](O)[C@H](O)[C@H]2O[C@H]2C[C@](C)(N)[C@H](O)[C@H](C)O2)Oc2ccc(cc2Cl)[C@H]1O [Vancomycin]  27 mm
14. CC[C@H]1OC(=O)[C@H](C)[C@@H](O[C@H]2C[C@@](C)(OC)[C@@H](O)[C@H](C)O2)[C@H](C)[C@@H](O[C@@H]2O[C@H](C)C[C@H](N(C)C)[C@H]2O)[C@](C)(O)C[C@@H](C)CN(C)[C@H](C)[C@@H](O)[C@]1(C)O [Azithromycin]  30 mm
15. Ampicillin/Sulbactam  30 mm
16. CC1(C)S[C@@H]2[C@H](NC(=O)[C@H](N)c3ccccc3)C(=O)N2[C@H]1C(=O)O [Ampicillin]  35 mm
17. CC(C)(O/N=C(\C(=O)N[C@@H]1C(=O)N2C(C(=O)[O-])=C(C[n+]3ccccc3)CS[C@H]12)c1csc(N)n1)C(=O)O [Ceftazidime]  38 mm
18. CO/N=C(\C(=O)N[C@@H]1C(=O)N2C(C(=O)O)=C(COC(C)=O)CS[C@H]12)c1csc(N)n1 [Cefatoxim]  40 mm
19. CC[C@H]1OC(=O)[C@H](C)[C@@H](O[C@H]2C[C@@](C)(OC)[C@@H](O)[C@H](C)O2)[C@H](C)[C@@H](O[C@@H]2O[C@H](C)C[C@H](N(C)C)[C@H]2O)[C@](C)(O)C[C@@H](C)C(=O)[C@H](C)[C@@H](O)[C@]1(C)O [Erythromycin]  40 mm
20. O=C1CN(/N=C/c2ccc([N+](=O)[O-])o2)C(=O)N1 [Nitrofurantoin]  40 mm
21. CC1(C)S[C@@H]2[C@H](NC(=O)[C@H](C(=O)O)c3ccsc3)C(=O)N2[C@H]1C(=O)O [Ticarcillin]  40 mm
22. CCC[C@@H]1C[C@@H](C(=O)N[C@@H]([C@H]2O[C@H](SC)[C@H](O)[C@@H](O)[C@H]2O)[C@H](C)Cl)N(C)C1 [Clindamycin]  43 mm

system: homocysteine concentration in the blood; assay: not given; details: 400 μg/day; cited from earlier work

For `Nc1nc2ncc(CNc3ccc(C(=O)N[C@@H](CCC(=O)O)C(=O)O)cc3)nc2c(=O)[nH]1` [folic acid], the “effect on homocysteine concentration in the blood” value is listed as “decrease the levels of homocysteine concentration in the blood”.
